How the values were obtained:
human factor XIa = human factor XIa (Homo sapiens, UniProt P03951); assay: Factor XIa Assay; assay type: biochemical; settings: human factor XIa 0.04 nM, 30 min pre-incubation at 25° C., substrate GPR-AFC, pH 7.4, 60 min incubation; read-out: FXIa IC50
Experimental: (§1) The effectiveness of a compound of the present invention as an inhibitor of Coagulation factor XIa can be determined using a relevant purified serine protease, and an appropriate synthetic substrate. The rate of hydrolysis of the chromogenic or fluorogenic substrate by the relevant serine protease was measured both in the absence and presence of compounds of the present invention. Assays were conducted at rt or at 37° C. […] A decrease in the rate of fluorescence change in the presence of inhibitor is indicative of enzyme inhibition. Such methods are known to one skilled in the art. The results of this assay are expressed as the half-maximal inhibitory concentrations (IC50), or the inhibitory constant, Ki.
Compounds were pre-incubated for 30 min at 25° C. with human (0.04 nM) factor XIa in 50 mM HEPES buffer with 150 mM sodium chloride, 5 mM calcium chloride, 0.1% PEG 8000, pH 7.4. factor XIa enzymatic activity was determined by addition of the substrate glycine-proline-arginine-7-amido-4-trifluoromethylcoumarin (GPR-AFC) and measurement of the fluorescence at 400/505 nm after a 60 min incubation at 25° C. The % inhibition for each data point was calculated from the data and analyzed using the log (inhibitor) vs. response four parameters equation to determine the half-maximal inhibitory concentrations (IC50). The IC50 were converted to equilibrium inhibitory constants (Ki) using the Cheng-Prusoff equation.

Human plasma kallikrein = molecular target: T1, Human plasma kallikrein (Homo sapiens, UniProt P03952); assay: Plasma Kallikrein Assay; assay type: biochemical; settings: purified Human plasma kallikrein 0.5 nM, substrate Acetyl-K-P-R-AFC, HEPES pH 7.4, fluorescence 405 Ex/510 Em; read-out: PKal IC50
T1 construct: yields a heavy chain (371 amino acids) and a light chain (248 amino acids); purchased Enzyme Research Laboratories
Experimental: as §1, with “plasma kallikrein” for “Coagulation factor XIa”
Plasma kallikrein determinations were made in 50 mM HEPES buffer at pH 7.4 containing 150 mM NaCl, 5 mM CaCl2), and 0.1% PEG 8000 (polyethylene glycol: Fisher Scientific). Determinations were made using purified Human plasma kallikrein at a final concentration of 0.5 nM (Enzyme Research Laboratories) and the synthetic substrate, Acetyl-K-P-R-AFC (Sigma #C6608) at a concentration of […].
Activity assays were performed by diluting a stock solution of substrate at least tenfold to a final concentration ≤0.2 Km into a solution containing enzyme or enzyme equilibrated with inhibitor. Times required to achieve equilibration between enzyme and inhibitor were determined in control experiments. The reactions were performed under linear progress curve conditions and fluorescence increase measured at 405 Ex/510 Em nm. Values were converted to percent inhibition of the control reaction (after subtracting 100% Inhibition value). IC50 was determined by inflection point from a four parameter logistic curve fit. Ki was calculated using the Cheng Prusoff equation, Ki=IC50/(1+([S]/Km)).

Chain of human factor XIa (P03951 388-625 limits assumed): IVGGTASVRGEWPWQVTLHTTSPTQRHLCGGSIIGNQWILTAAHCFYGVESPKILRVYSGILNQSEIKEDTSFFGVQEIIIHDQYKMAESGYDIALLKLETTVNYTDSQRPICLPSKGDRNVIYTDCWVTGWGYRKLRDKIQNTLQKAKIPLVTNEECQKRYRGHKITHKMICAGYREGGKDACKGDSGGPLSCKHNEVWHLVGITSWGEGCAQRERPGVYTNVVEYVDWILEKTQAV
Chain of human factor XIa (P03951 19-387 partner limits assumed): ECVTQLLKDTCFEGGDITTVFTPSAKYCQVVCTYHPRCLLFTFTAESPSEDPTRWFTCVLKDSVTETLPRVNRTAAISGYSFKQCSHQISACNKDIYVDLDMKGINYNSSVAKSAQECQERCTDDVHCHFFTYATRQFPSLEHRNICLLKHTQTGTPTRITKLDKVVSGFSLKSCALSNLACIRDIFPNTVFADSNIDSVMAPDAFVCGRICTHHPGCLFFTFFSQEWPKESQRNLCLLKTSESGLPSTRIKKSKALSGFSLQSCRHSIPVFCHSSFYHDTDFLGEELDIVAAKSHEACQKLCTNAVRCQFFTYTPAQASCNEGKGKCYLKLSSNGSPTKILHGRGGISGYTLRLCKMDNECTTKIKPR
T1 sequence (P03952 391-638 limits assumed): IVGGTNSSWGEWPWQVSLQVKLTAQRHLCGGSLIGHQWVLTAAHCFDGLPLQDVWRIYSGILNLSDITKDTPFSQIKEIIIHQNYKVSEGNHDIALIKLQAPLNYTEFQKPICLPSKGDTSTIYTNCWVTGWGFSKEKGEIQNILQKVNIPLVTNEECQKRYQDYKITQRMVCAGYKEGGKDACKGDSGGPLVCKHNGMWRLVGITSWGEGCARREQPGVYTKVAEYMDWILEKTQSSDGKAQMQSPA
T1 sequence (P03952 20-390 partner limits assumed): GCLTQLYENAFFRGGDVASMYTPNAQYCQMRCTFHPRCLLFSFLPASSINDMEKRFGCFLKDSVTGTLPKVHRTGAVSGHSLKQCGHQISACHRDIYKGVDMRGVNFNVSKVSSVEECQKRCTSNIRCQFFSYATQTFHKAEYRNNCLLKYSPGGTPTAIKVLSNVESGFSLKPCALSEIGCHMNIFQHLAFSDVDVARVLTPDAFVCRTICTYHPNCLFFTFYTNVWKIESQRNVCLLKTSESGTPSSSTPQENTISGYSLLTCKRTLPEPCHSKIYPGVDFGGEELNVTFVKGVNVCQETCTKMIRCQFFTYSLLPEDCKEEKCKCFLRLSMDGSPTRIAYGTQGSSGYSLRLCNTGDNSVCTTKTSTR

SMILES	IC50 (human factor XIa)	IC50 (Human plasma kallikrein)
Nc1c(Cl)c(-c2ccccc2)nn1CC(=O)N1CCC[C@@]2(C1)OC(=O)Nc1ccc(Cl)c(F)c12 [Example 22, (R)-1′-(2-(5-Amino-4-chloro-3-phenyl-1H-pyrazol-1-yl)acetyl)-6-chloro-5-fluorospiro[benzo[d][1,3]oxazine-4,3′-piperidin]-2(1H)-one]	516 nM	26.3 nM
Nc1cc(-c2ccccc2)nn1CC(=O)N1CCC[C@@]2(C1)OC(=O)Nc1ccc(Cl)c(F)c12 [Example 23, (R)-1′-(2-(5-Amino-3-phenyl-1H-pyrazol-1-yl)acetyl)-6-chloro-5-fluorospiro[benzo[d][1,3]oxazine-4,3′-piperidin]-2(1H)-one]	1790 nM	11.8 nM
Nc1cc(-c2ccccc2)nn1CC(=O)N1CC[C@@]2(C1)OC(=O)Nc1ccc(Cl)c(F)c12 [Example 24, (R)-1′-(2-(5-Amino-3-phenyl-1H-pyrazol-1-yl)acetyl)-6-chloro-5-fluorospiro[benzo[d][1,3]oxazine-4,3'-pyrrolidin]-2(1H)-one]	114 nM	15.4 nM
Nc1cc(-c2cccnn2)nn1CC(=O)N1CC[C@@]2(C1)OC(=O)Nc1ccc(Cl)c(F)c12 [Example 25, (R)-1′-(2-(5-Amino-3-(pyridazin-3-yl)-1H-pyrazol-1-yl)acetyl)-6-chloro-5-fluorospiro[benzo[d][1,3]oxazine-4,3′-pyrrolidin]-2(1H)-one]	367 nM	12.7 nM
Nc1c2c(nn1CC(=O)N1CCC[C@@]3(C1)OC(=O)Nc1ccc(Cl)c(F)c13)CCCC2 [Example 26, (R)-1′-(2-(3-Amino-4,5,6,7-tetrahydro-2H-indazol-2-yl)acetyl)-6-chloro-5-fluorospiro[benzo[d][1,3]oxazine-4,3′-piperidin]-2(1H)-one]	484 nM	22.2 nM
Nc1cc(-c2ncc(F)cc2F)nn1CC(=O)N1CC[C@@]2(C1)OC(=O)Nc1ccc(Cl)c(F)c12 [Example 27, (R)-1′-(2-(5-Amino-3-(3,5-difluoropyridin-2-yl)-1H-pyrazol-1-yl)acetyl)-6-chloro-5-fluorospiro[benzo[d][1,3]oxazine-4,3′-pyrrolidin]-2(1H)-one]	424 nM	25.3 nM
Nc1cc(C2CC2)nn1CC(=O)N1CCC[C@@]2(C1)OC(=O)Nc1ccc(Cl)c(F)c12 [Example 28, (R)-1′-(2-(5-Amino-3-cyclopropyl-1H-pyrazol-1-yl)acetyl)-6-chloro-5-fluorospiro[benzo[d][1,3]oxazine-4,3′-piperidin]-2(1H)-one]	55 nM	16.7 nM
Nc1c(Cl)c(C2CC2)nn1CC(=O)N1CCC[C@@]2(C1)OC(=O)Nc1ccc(Cl)c(F)c12 [Example 29, (R)-1′-(2-(5-Amino-4-chloro-3-cyclopropyl-1H-pyrazol-1-yl)acetyl)-6-chloro-5-fluorospiro[benzo[d][1,3]oxazine-4,3'-piperidin]-2(1H)-one]	1250 nM	32.3 nM
Nc1c(F)c(-c2ccc(F)cc2F)nn1CC(=O)N1CCC[C@@]2(C1)OC(=O)Nc1ccc(Cl)c(F)c12 [Example 30, (R)-1′-(2-(5-Amino-3-(2,4-difluorophenyl)-4-fluoro-1H-pyrazol-1-yl)acetyl)-6-chloro-5-fluorospiro[benzo[d][1,3]oxazine-4,3'-piperidin]-2(1H)-one]	164 nM	37.4 nM
Nc1c(Cl)c(-c2ncc(F)cc2F)nn1CC(=O)N1CC[C@@]2(C1)OC(=O)Nc1ccc(Cl)c(F)c12 [Example 31, (R)-1′-(2-(5-Amino-4-chloro-3-(3,5-difluoropyridin-2-y1)-1H-pyrazol-1-yl)acetyl)-6-chloro-5-fluorospiro[benzo[d][1,3]oxazine-4,3′-pyrrolidin]-2(1H)-one]	1830 nM	32.1 nM
Nc1cc(-c2ncc(F)cc2F)nn1CC(=O)N1CCC[C@@]2(C1)OC(=O)Nc1ccc(Cl)c(F)c12 [Example 32, (R)-1′-(2-(5-Amino-3-(3,5-difluoropyridin-2-y1)-1H-pyrazol-1-yl)acetyl)-6-chloro-5-fluorospiro[benzo [d][1,3]oxazine-4,3′-piperidin]-2(1H)-one]	648 nM	5.7 nM
Nc1c(Cl)c(-c2ncc(F)cc2F)nn1CC(=O)N1CCC[C@@]2(C1)OC(=O)Nc1ccc(Cl)c(F)c12 [Example 33, (R)-1′-(2-(5-Amino-4-chloro-3-(3,5-difluoropyridin-2-y1)-1H-pyrazol-1-yl)acetyl)-6-chloro-5-fluorospiro[benzo[d][1,3]oxazine-4,3′-piperidin]-2(1H)-one]	187 nM	7.7 nM
Nc1c(Cl)c(-c2ncccc2F)nn1CC(=O)N1CCC[C@@]2(C1)OC(=O)Nc1ccc(Cl)c(F)c12 [Example 34, (R)-1′-(2-(5-Amino-4-chloro-3-(3-fluoropyridin-2-y1)-1H-pyrazol-1-yl)acetyl)-6-chloro-5-fluorospiro[benzo[d][1,3]oxazine-4,3′-piperidin]-2(1H)-one]	177 nM	8.9 nM
Nc1c(Cl)c(-c2ncccn2)nn1CC(=O)N1CCC[C@@]2(C1)OC(=O)Nc1ccc(Cl)c(F)c12 [Example 35, (R)-1′-(2-(5-Amino-4-chloro-3-(pyrimidin-2-y1)-1H-pyrazol-1-yl)acetyl)-6-chloro-5-fluorospiro[benzo[d][1,3]oxazine-4,3′-piperidin]-2(1H)-one]	280 nM	24.5 nM
Nc1cc(-c2ncccc2F)nn1CC(=O)N1CCC[C@@]2(C1)OC(=O)Nc1ccc(Cl)c(F)c12 [Example 36, (R)-1′-(2-(5-Amino-3-(3-fluoropyridin-2-y1)-1H-pyrazol-1-yl)acetyl)-6-chloro-5-fluorospiro [benzo[d][1,3]oxazine-4,3′-piperidin]-2(1H)-one]	826 nM	8.4 nM
Nc1cc(-c2c(F)cccc2F)nn1CC(=O)N1CC[C@@]2(C1)OC(=O)Nc1ccc(Cl)c(F)c12 [Example 37, (R)-1′-(2-(5-Amino-3-(2,6-difluorophenyl)-1H-pyrazol-1-yl)acetyl)-6-chloro-5-fluorospiro[benzo[d][1.3]oxazine-4,3′-pyrrolidin]-2(1H)-one]	102 nM	2.2 nM
Nc1cc(-c2ccccn2)nn1CC(=O)N1CC[C@@]2(C1)OC(=O)Nc1ccc(Cl)c(F)c12 [Example 38, (R)-1′-(2-(5-Amino-3-(pyridin-2-y1)-1H-pyrazol-1-yl)acetyl)-6-chloro-5-fluorospiro[benzo[d][1,3]oxazine-4,3′-pyrrolidin]-2(1H)-one]	665 nM	28 nM
Nc1cc(-c2cccs2)nn1CC(=O)N1CC[C@@]2(C1)OC(=O)Nc1ccc(Cl)c(F)c12 [Example 39, (R)-1′-(2-(5-Amino-3-(thiophen-2-y1)-1H-pyrazol-1-yl)acetyl)-6-chloro-5-fluorospiro[benzo[d] [1,3]oxazine-4,3′-pyrrolidin]-2(1H)-one]	254 nM	13 nM
Nc1cc(-c2ccco2)nn1CC(=O)N1CC[C@@]2(C1)OC(=O)Nc1ccc(Cl)c(F)c12 [Example 40, (R)-1′-(2-(5-Amino-3-(furan-2-y1)-1H-pyrazol-1-yl)acetyl)-6-chloro-5-fluorospiro[benzo[d] [1,3]oxazine-4,3′-pyrrolidin]-2(1H)-one]	225 nM	16.2 nM
Nc1cc(-c2nccs2)nn1CC(=O)N1CC[C@@]2(C1)OC(=O)Nc1ccc(Cl)c(F)c12 [Example 41, (R)-1′-(2-(5-Amino-3-(thiazol-2-y1)-1H-pyrazol-1-yl)acetyl)-6-chloro-5-fluorospiro[benzo[d] [1,3]oxazine-4,3′-pyrrolidin]-2(1H)-one]	286 nM	18.1 nM
Cc1cccc(-c2cc(N)n(CC(=O)N3CC[C@@]4(C3)OC(=O)Nc3ccc(Cl)c(F)c34)n2)c1 [Example 42, (R)-1′-(2-(5-Amino-3-(m-toly1)-1H-pyrazol-1-yl)acetyl)-6-chloro-5-fluorospiro[benzo[d][1,3]oxazine-4,3′-pyrrolidin]-2(1H)-one]	611 nM	15.1 nM

— US20240208994A1, “PLASMA KALLIKREIN INHIBITORS” (Merck Sharp & Dohme LLC, priority 2021, published 2024)
